The text below walks through data of patent US20250057913A1, “USE OF SOMATOSTATIN AGONIST IN THE TREATMENT OF SSTR3 EXPRESSING TUMORS” (ITALFARMACO SPA, priority 2021, published 2025).

The EC50 is the concentration that produces a half-maximal response. Read a low EC50 as a more potent agent.

In assay [1] the target is T1, SSTR3 (Homo sapiens, UniProt P32745). Briefly: GIRK-based fluorescence membrane potential assay, HEK293-GIRK2-GFP-HA-hSST3.
From the text: The concentrations used are indicated. […] Data points represent mean±S.E.M.
Therefore, G protein-signaling mediated by SSTR agonists was studied using a GIRK-based fluorescence membrane potential assay both in HEK293 cells transfected with hSSTR3, and in AtT20 wild-type as well as hSSTR3-transfected cells.
The next assay deals with IGF1 levels. Briefly: IGF1 levels in dogs. Format: in vivo, dog.
A further assay concerns the target SSTR2 (Homo sapiens, UniProt P30874). The assay is described as follows: SSTR2 internalization in transfected HEK293 cells. The format is cell-based. On the set-up: expressed in transfected cells. From the text: HEK293 cells transfected with human SSTRs, and U20S cells transfected with human GFP-tagged receptors (SSTR2-tGFP, SSTR3-tGFP, SSTR5-tGFP).
A further assay deals with NT-3 cell line spheroids. The assay is described as follows: Cytotoxic activity on NT-3 cell line spheroids. Format: cell-based, human. As to the method: NT-3 well-differentiated pancreatic neuroendocrine (PanNET) cell line (32) is an in-vitro model for pancreatic tumours.
Said cells were cultured in RPMI 1640 Medium GlutaMAX™ with 10% FBS, 1% Penicillin/Streptomycin, 20ng/ml EGF (AF-100-15, Peprotech), 10 ng/ml FGF (100-18B, Peprotech).
3D spheroids were generated by seeding 2000 cells/well in a 96-well ULA plate (Corning). Four replicates for each condition were seeded.
The spheroid formation required 4 days before starting the treatment.
The treatment was repeated every 3 days by replacing 50% of the medium (to avoid spheroid removal) with new medium containing 2× desired drug concentration.
Spheroid morphology was monitored every day during the treatment and pictures were taken on day 0, 4, 7, 11, 14, 18. Day 0 corresponds to the first day of treatment. Pictures were taken from the same well every time point.

Assay [2] concerns primary cultures of rat anterior pituitary cells. The assay is described as follows: Inhibition of GHRH-stimulated GH release in vitro. Format: cell-based. As to conditions: rat anterior pituitary primary cell cultures. From the text:
FIG. 4. Inhibition of GHRH-stimulated GH release in vitro using primary cultures of rat anterior pituitary cells.
Results are expressed as mean values±SD of 3 experiments.

Assay [3] has as its target T1, SSTR3. Briefly: SSTR3 phosphorylation in HEK293 transfected cells (phosphosite-specific antibodies). On the set-up: expressed in transfected cells. Format: cell-based. The settings on record: 10^−12 to 10^−5 M, 10 min at 37° C. As to the method:
The levels of phosphorylated SST3 receptor were then determined using the phosphosite-specific anti-pS337/pT341 or anti-pT348.
Finally, the SSTR5 pT333 phosphosite was only partially affected by all tested compounds, with Pasireotide showing the most pronounced effect (FIG. 9B, C).

T1 sequence (P32745 whole entry): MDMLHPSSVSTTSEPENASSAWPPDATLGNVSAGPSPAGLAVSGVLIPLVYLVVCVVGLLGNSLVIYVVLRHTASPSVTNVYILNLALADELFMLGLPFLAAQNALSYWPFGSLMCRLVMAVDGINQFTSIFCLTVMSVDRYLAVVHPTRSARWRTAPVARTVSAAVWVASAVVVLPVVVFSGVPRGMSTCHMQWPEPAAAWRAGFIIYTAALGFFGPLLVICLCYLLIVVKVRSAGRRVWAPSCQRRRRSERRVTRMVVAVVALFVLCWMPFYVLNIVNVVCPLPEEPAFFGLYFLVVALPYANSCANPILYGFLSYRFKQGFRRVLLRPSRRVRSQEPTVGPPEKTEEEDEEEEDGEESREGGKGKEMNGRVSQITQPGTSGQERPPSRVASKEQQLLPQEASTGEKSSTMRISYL
SSTR2, sequence (P30874 whole entry): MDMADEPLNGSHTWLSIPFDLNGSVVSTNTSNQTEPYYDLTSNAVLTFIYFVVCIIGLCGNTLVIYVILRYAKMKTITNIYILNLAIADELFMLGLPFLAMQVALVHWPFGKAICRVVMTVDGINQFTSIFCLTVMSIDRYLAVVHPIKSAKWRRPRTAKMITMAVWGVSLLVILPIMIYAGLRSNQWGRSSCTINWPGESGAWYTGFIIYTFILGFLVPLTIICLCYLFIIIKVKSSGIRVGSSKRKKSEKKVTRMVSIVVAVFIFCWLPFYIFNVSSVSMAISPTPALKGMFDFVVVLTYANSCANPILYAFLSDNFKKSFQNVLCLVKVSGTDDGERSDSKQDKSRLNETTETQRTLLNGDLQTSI

`COc1cc2cccc(OC)c2cc1C[C@H]1NC(=O)[C@H](Cc2ccc(O)cc2)NC(=O)[C@@H]2C[C@@H](OC(=O)NCCN)CN2C(=O)[C@H](Cc2ccccc2)NC(=O)[C@H](Cc2ccc(OCc3ccccc3)cc2)NC(=O)[C@H](CCCCN)NC1=O` [ITF2984, (3S,6R,9S,12S,15S,19R,20aS)-9-(4-aminobutyl)-15-benzyl-12-(4-(benzyloxy)benzyl)-6-((3,8-dimethoxynaphthalen-2-yl)methyl)-3-(4-hydroxybenzyl)-1,4,7,10,13,16-hexaoxoicosahydropyrrolo[1,2-a][1,4,7,10,13,16]hexaazacyclooctadecin-19-yl (2-aminoethyl)carbamate] came in with an EC50 at SSTR3 [1] of 10.7 ± 1.7 nM. Moreover, on SSTR3 [1] (more potent than Octreotide or Pasireotide), the “G-protein signaling potency at SSTR3 versus Octreotide or Pasireotide” value is recorded as “about 5 times”. In the assay with IGF1 levels, the IGF1 levels entry is listed as “decreased IGF1 levels”. In addition, at SSTR2, the “internalization of SSTR2” value is on record as “only a partial internalization”. In the assay with NT-3 cell line spheroids (2.56 μM, 18 days), the “spheroid morphology at the highest concentration” value was “completed destroyed”. The “concentration reducing the spheroid volume” value in the assay on NT-3 cell line spheroids (starting from day 7) is no less than 640 nM. For the same molecule, the “inhibition of GH release” value in assay [2] is “potently inhibited GH release”. For the same molecule, the “phosphorylation of SSTR3 (pS337/pT341, pT348)” value on SSTR3 [3] is recorded as “full phosphorylation”.
